The target in assay [1] is T1, JAK2 JH2 WT (V536-D812) [W659A, W777A, F794H solubilizing mutations] (Homo sapiens, UniProt O60674, F794H/W659A/W777A).
T1 construct: **JAK2 JH2 WT (V536-D812) [W659A, W777A, F794H solubilizing mutations]; C-thrombin-avi-His6; thrombin cleavage site (C); His6 (C); purchased Biortus
Briefly: Surface Plasmon Resonance (SPR) binding assay, JAK2 JH2 domain. As to conditions: SPR, JAK2 JH2 domain. In a few lines: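 Kinetics came from 1:1 fits of single-cycle runs at 20 °C: four 3-fold dilutions from 5 uM for JH1 or 500 nM for JH2, 60 s association, and 300 s or 1200 s dissociation respectively. Protein was freshly captured per compound in the presence of 10 uM stabilizer compound, with running buffer of pH 7.5 HEPES/NaCl/glycerol/DTT plus 2% DMSO.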

Assay [2] relates to TF1 JAK2 V617F STAT3 reporter. The experiment in a line: Cellular TF1 STAT3 assay (luciferase reporter), JAK2 V617F. Format: cell-based. As to conditions: TF1 JAK2 V617F, read-out: Cell PD-TF1 JAK2 V617F STAT3 (IC50). The essentials:
(§1)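 Inhibition of JAK2 V617F-mediated STAT3/STAT5 signalling is measured by reporter luminescence in TF1 erythroleukemia cells treated overnight (18-20 h) with a 10-point compound series; DMSO serves as vehicle.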
A general note: Reporter assays use an easily measured gene product as a stand-in for the process of interest.

In assay [3] the test system is TF1 JAK2 V617F STAT5 reporter. Briefly: Cellular TF1 STAT5 assay (luciferase reporter), JAK2 V617F. Type of assay: cell-based. To be noted: TF1 JAK2 V617F, read-out: Cell PD TF1 V617F STAT5 (IC50). The essentials: as §1

T1 sequence (O60674 536-812 W659A/W777A/F794H): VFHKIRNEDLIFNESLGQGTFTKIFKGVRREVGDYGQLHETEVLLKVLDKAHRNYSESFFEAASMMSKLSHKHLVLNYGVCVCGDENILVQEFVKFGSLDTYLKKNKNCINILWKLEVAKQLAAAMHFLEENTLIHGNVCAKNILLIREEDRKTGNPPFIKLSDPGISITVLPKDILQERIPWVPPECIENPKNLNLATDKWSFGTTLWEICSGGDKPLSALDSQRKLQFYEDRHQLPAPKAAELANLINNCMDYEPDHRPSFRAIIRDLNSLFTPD

The term Kd denotes the free concentration of one partner at which half of the binding sites on the other are occupied at equilibrium, for simple one-to-one binding. High values mean a looser complex, low ones a tighter complex. What is called IC50 is the concentration needed to halve the response being measured. Take `CNC(=O)c1nnc(NC(=O)C2CC2)cc1Nc1cccc(-c2ccc(C(=O)N(C)Cc3ccc(OC(F)F)cc3)nc2)c1OC` [Compound 85]: in assay [1], the Kd lay within 0.01 to 10 nM. The half-maximal inhibitory concentration (IC50) in assay [2] and in assay [3] was 500 to 5000 nM in each case.
`CNC(=O)c1nnc(NC(=O)C2CC2)cc1Nc1cccc(-c2ccc(C(=O)N(C)Cc3cn(C)cn3)nc2)c1OC` [Compound 86] displayed a dissociation constant Kd in assay [1] of 0.01 to 10 nM. Also, the IC50 in assay [2] and in assay [3] was 500 to 5000 nM throughout.
`CNC(=O)c1nnc(NC(=O)C2CC2)cc1Nc1cccc(-c2cnn(C3CN(Cc4cc(OC)ccn4)C3)c2)c1OC` [Compound 88] returned a Kd in assay [1] of 0.01 to 10 nM. In addition, the IC50 in assay [2] and in assay [3] was 500 to 5000 nM each time.
On to `CNC(=O)c1nnc(NC(=O)C2CC2)cc1Nc1cccc(-c2cnn(C3CN(Cc4cccnc4)C3)c2)c1OC` [Compound 89], for which the Kd in assay [1] was 0.01 to 10 nM. In addition, the IC50 in assay [2] and in assay [3] was 50 to 500 nM throughout.
On to `CNC(=O)c1nnc(NC(=O)C2CC2)cc1Nc1cccc(-c2cnn(C3CN(Cc4ccccc4F)C3)c2)c1OC` [Compound 90], for which, in assay [1], the Kd is 0.01 to 10 nM. Further, the concentration for half-maximal inhibition (IC50) in assay [2] and in assay [3] was 500 to 5000 nM in each case.
Compound `CNC(=O)c1nnc(NC(=O)C2CC2)cc1Nc1cccc(-c2cnn(C3CN(Cc4cccc(F)c4)C3)c2)c1OC` [Compound 91] registered a Kd in assay [1] of 0.01 to 10 nM. Besides, the IC50 in assay [2] and in assay [3] was 500 to 5000 nM throughout.
`CNC(=O)c1nnc(NC(=O)C2CC2)cc1Nc1cccc(-c2ccc(C(=O)N(C)Cc3ccc(N(C)C)nc3)nc2)c1OC` [Compound 93] displayed a Kd in assay [1] of 10 to 50 nM. Further, the IC50 in assay [2] and in assay [3] was 500 to 5000 nM in each case.
`CNC(=O)c1nnc(NC(=O)C2CC2)cc1Nc1cccc(-c2ccc(C(=O)N(C)Cc3ccc(OC)cc3)nc2)c1OC` [Compound 94] registered a Kd in assay [1] of 0.01 to 10 nM. Further, the IC50 in assay [2] and in assay [3] was 500 to 5000 nM in each case.
Consider `CNC(=O)c1nnc(NC(=O)C2CC2)cc1Nc1cccc(-c2ccc(C(=O)N(C)Cc3ccc(F)cc3)cc2)c1OC` [Compound 95], for which the Kd in assay [1] lay in the range of 10 to 50 nM. In addition, the IC50 in assay [2] and in assay [3] was 5000 to 100000 nM in each case.
Consider `CCn1cncc1CN(C)C(=O)c1ccc(-c2cccc(Nc3cc(NC(=O)C4CC4)nnc3C(=O)NC)c2OC)cn1` [Compound 96], for which the Kd in assay [1] lay in the range of 0.01 to 10 nM. For the same compound, the IC50 in assay [2] and in assay [3] was 500 to 5000 nM each time.
For the compound `CNC(=O)c1nnc(NC(=O)C2CC2)cc1Nc1cc(F)cc(-c2ccc(C(=O)N(C)Cc3ccn(C)n3)nc2)c1OC` [Compound 97], the Kd in assay [1] lay within 0.01 to 10 nM. The IC50 in assay [2] and in assay [3] was 50 to 500 nM throughout.
Take `CNC(=O)c1nnc(NC(=O)C2CC2)cc1Nc1cccc(-c2cnc(C(=O)N(C)Cc3ccon3)c(F)c2)c1OC` [Compound 98]: the Kd in assay [1] lay within 0.01 to 10 nM. The values for the IC50 in assay [2] and in assay [3] were 500 to 5000 nM and 5000 to 100000 nM, respectively.
For `CNC(=O)c1nnc(NC(=O)C2CC2)cc1Nc1cccc(-c2ccc(C(=O)N(C)Cc3ccon3)nc2)c1OC` [Compound 99], in that order: 0.01 to 10 nM, 500 to 5000 nM and 5000 to 100000 nM.
The compound `CNC(=O)c1nnc(NC(=O)C2CC2)cc1Nc1cccc(-c2ccc(C(=O)N(C)Cc3cn(C)nn3)nc2)c1OC` [Compound 100] displayed an equilibrium dissociation constant (Kd) in assay [1] of 0.01 to 10 nM. For the same compound, the IC50 in assay [2] and in assay [3] was 500 to 5000 nM throughout.
Take `CNC(=O)c1nnc(NC(=O)C2CC2)cc1Nc1cccc(-c2ccc(C(=O)N(C)Cc3cn(C)nc3C)nc2)c1OC` [Compound 101]: the Kd in assay [1] was in the range of 0.01 to 10 nM. The IC50 in assay [2] and in assay [3] was 50 to 500 nM throughout.
`CNC(=O)c1nnc(NC(=O)C2CC2)cc1Nc1cccc(-c2ccc(C(=O)N(C)Cc3nc(C)no3)nc2)c1OC` [Compound 102]: the dissociation constant Kd in assay [1] was 0.01 to 10 nM. The IC50 in assay [2] and in assay [3] was 500 to 5000 nM each time.
`CNC(=O)c1nnc(NC(=O)C2CC2)cc1Nc1ccc(C)c(-c2ccc(C(=O)N(C)Cc3cc(C#N)ccn3)cc2)c1OC` [Compound 103] returned a Kd in assay [1] of 0.01 to 10 nM. In addition, the IC50 lay in the range of 50 to 500 nM in assay [2] and 500 to 5000 nM in assay [3].
In turn, `CNC(=O)c1nnc(NC(=O)C2CC2)cc1Nc1cccc(-c2cnn(C3CN(Cc4ncn(C)n4)C3)c2)c1OC` [Compound 104] displayed a Kd in assay [1] of 0.01 to 10 nM. Also, the IC50 in assay [2] and in assay [3] was 500 to 5000 nM in each case.
In turn, `[2H]C([2H])([2H])NC(=O)c1nnc(NC(=O)C2CC2)cc1Nc1cccc(-c2cnn(C3CN(Cc4ccccn4)C3)c2)c1OC` [Compound 105] showed a Kd in assay [1] of 0.01 to 10 nM. Besides, the IC50 in assay [2] and in assay [3] was 50 to 500 nM each time.
On to `CNC(=O)c1nnc(NC(=O)C2CC2)cc1Nc1cccc(-c2cnn(C3CN(Cc4cccc(C)n4)C3)c2)c1OC` [Compound 106], for which the dissociation constant (Kd) in assay [1] was in the range of 0.01 to 10 nM. For the same compound, the IC50 in assay [2] and in assay [3] was 50 to 500 nM throughout.
Take `CNC(=O)c1nnc(NC(=O)C2CC2)cc1Nc1cccc(-c2cnn(C3CN(Cc4cccc(OC)n4)C3)c2)c1OC` [Compound 107]: the Kd in assay [1] is 0.01 to 10 nM. Moreover, the IC50 in assay [2] and in assay [3] was 50 to 500 nM each time.
As to `CNC(=O)c1nnc(NC(=O)C2CC2)cc1Nc1cccc(-c2ccc(C(=O)N3CCc4cccnc4C3)nc2)c1OC` [Compound 108], the Kd in assay [1] lay within 10 to 50 nM. The half-maximal inhibitory concentration (IC50) in assay [2] and in assay [3] was 5000 to 100000 nM throughout.
With `CNC(=O)c1nnc(NC(=O)C2CC2)cc1Nc1cccc(-c2cnn(C3CN(Cc4cccnn4)C3)c2)c1OC` [Compound 109], the dissociation constant (Kd) in assay [1] was in the range of 0.01 to 10 nM. Also, the IC50 in assay [2] and in assay [3] was 50 to 500 nM each time.
In turn, `CNC(=O)c1nnc(NC(=O)C2CC2)cc1Nc1cccc(-c2cnn(C3CN(Cc4cnccn4)C3)c2)c1OC` [Compound 110] showed a Kd in assay [1] of 0.01 to 10 nM. Further, the IC50 in assay [2] was in the range of 50 to 500 nM; in assay [3], 500 to 5000 nM.
On the same counts, the results for `CNC(=O)c1nnc(NC(=O)C2CC2)cc1Nc1cccc(-c2cnn(C3CN(Cc4cc(C)ccn4)C3)c2)c1OC` [Compound 111] are 0.01 to 10 nM, 50 to 500 nM and 50 to 500 nM.
On the same counts, the results for `CNC(=O)c1nnc(NC(=O)C2CC2)cc1Nc1cc(F)cc(-c2ccc(C(=O)N(C)Cc3cc(C#N)ccn3)nc2)c1OC` [Compound 112] are 0.01 to 10 nM, 50 to 500 nM and 50 to 500 nM.
Take `CNC(=O)c1nnc(NC(=O)C2CC2)cc1Nc1cccc(-c2ccc(C(=O)N(C)Cc3ccc(F)cc3)nc2)c1OC` [Compound 113]: the Kd in assay [1] lay within 10 to 50 nM. The IC50 in assay [2] and in assay [3] was 500 to 5000 nM throughout.
`CNC(=O)c1nnc(NC(=O)C2CC2)cc1Nc1cccc(-c2ccc(C(=O)N(C)CC(F)F)nc2)c1OC` [Compound 114]: in assay [1], the Kd lay in the range of 10 to 50 nM. Moreover, the concentration for half-maximal inhibition (IC50) in assay [2] and in assay [3] was 5000 to 100000 nM each time.
In assay [1], `CNC(=O)c1nnc(NC(=O)C2CC2)cc1Nc1cccc(-c2ccc(C(=O)N(C)Cc3cc(C#N)ccn3)c(C#N)c2)c1OC` [Compound 118] showed a Kd of 0.01 to 10 nM. Moreover, the IC50 in assay [2] and in assay [3] was 500 to 5000 nM each time.
For the compound `CNC(=O)c1nnc(NC(=O)C2CC2)cc1Nc1cccc(-c2ccc(C(=O)N3CCc4cnn(C)c4C3)nc2)c1OC` [Compound 120], the Kd in assay [1] is 0.01 to 10 nM. Moreover, the IC50 in assay [2] and in assay [3] was 5000 to 100000 nM each time.
In assay [1], `CNC(=O)c1nnc(NC(=O)C2CC2)cc1Nc1cccc(-c2cnn(C3CN(CC4(C#N)CC4)C3)c2)c1OC` [Compound 121] registered a Kd of 0.01 to 10 nM. Moreover, the IC50 in assay [2] lay within 500 to 5000 nM; in assay [3], 5000 to 100000 nM.
On the same counts, the results for `CNC(=O)c1nnc(NC(=O)C2CC2)cc1Nc1cccc(-c2cnn(C3CN(Cc4nccs4)C3)c2)c1OC` [Compound 122] are 0.01 to 10 nM, 50 to 500 nM and 50 to 500 nM.
Compound `CNC(=O)c1nnc(NC(=O)C2CC2)cc1Nc1cccc(-c2cnn(C3CN(Cc4ncc(C)s4)C3)c2)c1OC` [Compound 123] yielded a dissociation constant Kd in assay [1] of 0.01 to 10 nM. Further, the 50% inhibitory concentration (IC50) in assay [2] and in assay [3] was 500 to 5000 nM in each case.
Consider `CNC(=O)c1nnc(NC(=O)C2CC2)cc1Nc1cccc(-c2cnn(C3CN(Cc4cscn4)C3)c2)c1OC` [Compound 124], for which the Kd in assay [1] was 0.01 to 10 nM. Also, the IC50 in assay [2] and in assay [3] was 50 to 500 nM throughout.
Take `CNC(=O)c1nnc(NC(=O)C2CC2)cc1Nc1cccc(-c2cnn(C3CN(Cc4ncsc4C)C3)c2)c1OC` [Compound 125]: the Kd in assay [1] was 0.01 to 10 nM. Also, the half-inhibitory concentration (IC50) in assay [2] and in assay [3] was 500 to 5000 nM throughout.
Compound `CNC(=O)c1nnc(NC(=O)C2CC2)cc1Nc1cccc(-c2cnn(C3CN(Cc4csc(C)n4)C3)c2)c1OC` [Compound 126] registered a Kd in assay [1] of 0.01 to 10 nM. Also, the IC50 in assay [2] and in assay [3] was 50 to 500 nM each time.
With `CNC(=O)c1nnc(NC(=O)C2CC2)cc1Nc1cccc(-c2cnn(C3CN(Cc4cc(F)ccc4F)C3)c2)c1OC` [Compound 128], the dissociation constant (Kd) in assay [1] was 0.01 to 10 nM. Also, the 50% inhibitory concentration (IC50) in assay [2] and in assay [3] was 500 to 5000 nM throughout.

The values are drawn from patent publication US20240368122A1, “JAK2 INHIBITORS AND METHODS OF USE THEREOF” (RELAY THERAPEUTICS, INC., priority 2021, published 2024).
